Measurements published in US20200325177A1, “METHODS OF MAKING STREPTOGRAMIN COMPOSITIONS AND THE USE THEREOF” (THE REGENTS OF THE UNIVERSITY OF CALIFORNIA, priority 2017, published 2020).
Converted amounts (≈) assume the structure as drawn. Where two headings read alike, the source gives them in different places.

Experiments:
Assay type in all cases: cell-based
Gram-Negative Organisms = assay: microbe, parasite or virus in culture
P. aeruginosa ATCC 27853 = assay: MIC, Gram-negative bacteria: P. aeruginosa ATCC 27853; settings: Pseudomonas aeruginosa, ATCC27853, read-out: Minimal Inhibitory Concentration (MIC) P. aeruginosa ATCC 27853
E. faecalis = assay: MIC, Gram-positive bacteria: E. faecalis; settings: Enterococcus faecalis, column 1, read-out: Minimal Inhibitory Concentration (MIC) E. faecalis
[1] = system: K. pneumoniae multidrug-resistant; assay: MIC, Gram-negative bacteria: K. pneumoniae multidrug-resistant; settings: Klebsiella pneumoniae, read-out: Minimal Inhibitory Concentration (MIC) K. pneumoniae multidrug-resistant
E. faecium ATCC 35667 = assay: MIC, Gram-positive bacteria: E. faecium ATCC 35667; settings: Enterococcus faecium, ATCC35667, column 2, read-out: Minimal Inhibitory Concentration (MIC) E. faecium ATCC 35667
E. faecium VRE; vanA = assay: MIC, Gram-positive bacteria: E. faecium VRE; vanA; settings: Enterococcus faecium, column 3, read-out: Minimal Inhibitory Concentration (MIC) E. faecium VRE
H. influenzae ATCC 49247 = assay: MIC, Gram-negative bacteria: H. influenzae ATCC 49247; settings: Haemophilus influenzae, ATCC49247, read-out: Minimal Inhibitory Concentration (MIC) H. influenzae ATCC 49247
[2] = system: S. aureus Linezolid-resistant; cfr; assay: MIC, Gram-positive bacteria: S. aureus Linezolid-resistant; cfr; settings: Staphylococcus aureus, column 9, read-out: Minimal Inhibitory Concentration (MIC) S. aureus Linezolid-resistant
[3] = system: P. aeruginosa MDR clinical isolate; assay: MIC, Gram-negative bacteria: P. aeruginosa MDR clinical isolate; settings: Pseudomonas aeruginosa, read-out: Minimal Inhibitory Concentration (MIC) P. aeruginosa MDR clinical isolate
S. aureus = assay: MIC, Gram-positive bacteria: S. aureus (strains not named); settings: Staphylococcus aureus, read-out: Minimal Inhibitory Concentration (MIC) S. aureus
[4] = system: S. aureus Vat A streptogramin; assay: MIC, Gram-positive bacteria: S. aureus Vat A streptogramin; settings: Staphylococcus aureus; Gram-positive; column 5; read-out: Minimal Inhibitory Concentration (MIC) S. aureus Vat A streptogramin
S. pneumoniae = assay: MIC, Gram-positive bacteria: S. pneumoniae; settings: Streptococcus pneumoniae, column 10, read-out: Minimal Inhibitory Concentration (MIC) S. pneumoniae
[5] = Acinetobacter baumannii, ATCC19606, read-out: Minimal Inhibitory Concentration (MIC), A. baumannii ATCC 19606
[6] = Escherichia coli, ATCC25922, read-out: Minimal Inhibitory Concentration (MIC), E. coli ATCC 25922
[7] = Escherichia coli, read-out: Minimal Inhibitory Concentration (MIC), E. coli BAS2006, OMP C, OMP F
[8] = Escherichia coli, read-out: Minimal Inhibitory Concentration (MIC), E. coli olC efflux defective
[9] = Escherichia coli, read-out: Minimal Inhibitory Concentration (MIC), E. coli permeability mutant BAS1314, IMP4213ZAB::TN10
[10] = Escherichia coli, read-out: Minimal Inhibitory Concentration (MIC), E. coli ΔompC768, KanR insert
[11] = Klebsiella pneumoniae, ATCC43816, read-out: Minimal Inhibitory Concentration (MIC), K. pneumoniae ATCC 43816
[12] = first unnamed S. aureus column (c4)
[13] = fourth unnamed S. aureus column (c8)
[14] = second unnamed S. aureus column (c6)
[15] = third unnamed S. aureus column (c7)

Row | Compound | MIC (Gram-Negative Organisms; [5]) [µg/mL] | MIC (Gram-Negative Organisms; [6]) [µg/mL] | MIC (Gram-Negative Organisms; [7]) [µg/mL] | MIC (Gram-Negative Organisms; [8]) [µg/mL] | MIC (Gram-Negative Organisms; [9]) [µg/mL] | MIC (Gram-Negative Organisms; [11]) [µg/mL] | MIC (P. aeruginosa ATCC 27853) [µg/mL] | MIC (E. faecalis) [µg/mL] | MIC [1] [µg/mL] | MIC (E. faecium ATCC 35667) [µg/mL] | MIC (E. faecium VRE; vanA) [µg/mL] | MIC (H. influenzae ATCC 49247) [µg/mL] | MIC [2] [µg/mL] | MIC [3] [µg/mL] | MIC (S. aureus; [12]) [µg/mL] | MIC (S. aureus; [13]) [µg/mL] | MIC (S. aureus; [14]) [µg/mL] | MIC (S. aureus; [15]) [µg/mL] | MIC [4] [µg/mL] | MIC (S. pneumoniae) [µg/mL] | also measured
1 | CC1=C\[C@@H](O)C[C@@H](O)Cc2nc(cs2)C(=O)N2CCC[C@@H]2C(=O)O[C@H](C(C)C)[C@H](C)/C=C/C(=O)NC\C=C\1 [SA0110264] | > 64 | > 64 | 4 (≈ 7.33 µM) | 2 (≈ 3.67 µM) | 1 (≈ 1.83 µM) | > 64 | > 64 | > 64 | > 64 | 1 (≈ 1.83 µM) | 4 (≈ 7.33 µM) | 1 (≈ 1.83 µM) | > 64 | > 64 | 8 (≈ 14.7 µM) | 8 (≈ 14.7 µM) | 16 (≈ 29.3 µM) | 16 (≈ 29.3 µM) | > 64 | 2 (≈ 3.67 µM) | MIC (Gram-Negative Organisms; [10]): > 64 µg/mL
2 | CC1=C\[C@@H](O)CC(N)Cc2nc(cs2)C(=O)N2CCC[C@@H]2C(=O)O[C@H](C(C)C)[C@H](C)/C=C/C(=O)NC\C=C\1 (stereo partly shown) [SA0110268] | > 64 | > 64 | 16 (≈ 29.4 µM) | 2 (≈ 3.67 µM) | 2 (≈ 3.67 µM) | > 64 | > 64 | > 64 | > 64 | 64 (≈ 117 µM) | > 64 | 64 (≈ 117 µM) | > 64 | > 64 | > 64 | > 64 | > 64 | > 64 | > 64 | 32 (≈ 58.7 µM) | MIC (Gram-Negative Organisms; [10]): > 64 µg/mL
3 | CC1=C\[C@@H](O)CC(=O)Cc2nc(co2)C(=O)N2CCC[C@@H]2C(=O)O[C@H]([C@H](C)CF)[C@H](C)/C=C/C(=O)NC\C=C\1 [SA0110273] | > 64 | > 64 | 16 (≈ 29.3 µM) | 4 (≈ 7.33 µM) | 8 (≈ 14.7 µM) | > 64 | > 64 | > 64 | > 64 | 16 (≈ 29.3 µM) | 64 (≈ 117 µM) | 8 (≈ 14.7 µM) | > 64 | > 64 | 64 (≈ 117 µM) | 32 (≈ 58.7 µM) | 64 (≈ 117 µM) | 64 (≈ 117 µM) | > 64 | 16 (≈ 29.3 µM) | MIC (Gram-Negative Organisms; [10]): > 64 µg/mL
4 | CC1=C\[C@@H](O)C[C@@H](F)Cc2nc(cs2)C(=O)N2CCC[C@@H]2C(=O)O[C@H](C(C)C)[C@H](C)/C=C/C(=O)NC\C=C\1 [SA0110279] | > 64 | 32 (≈ 58.4 µM) | 0.25 (≈ 0.456 µM) | 1 (≈ 1.83 µM) | < 0.06 | > 64 | > 64 | > 64 | > 64 | 0.5 (≈ 0.913 µM) | 1 (≈ 1.83 µM) | 0.25 (≈ 0.456 µM) | > 64 | > 64 | 0.5 (≈ 0.913 µM) | 0.5 (≈ 0.913 µM) | 0.5 (≈ 0.913 µM) | 1 (≈ 1.83 µM) | 8 (≈ 14.6 µM) | 1 (≈ 1.83 µM) | MIC (Gram-Negative Organisms; [10]): 32 µg/mL (≈ 58.4 µM)
5 | CC1=C\[C@@H](O)CC(=O)Cc2nc(co2)C(=O)N[C@H](Cc2ccccc2)C(=O)O[C@H](C(C)C)[C@H](C)/C=C/C(=O)NC\C=C\1 [SA0202061] | > 64 | > 64 | 16 (≈ 27.7 µM) | 4 (≈ 6.92 µM) | 4 (≈ 6.92 µM) | > 64 | > 64 | 32 (≈ 55.4 µM) | > 64 | 32 (≈ 55.4 µM) | 64 (≈ 111 µM) | > 64 | > 64 | > 64 | 64 (≈ 111 µM) | 64 (≈ 111 µM) | 64 (≈ 111 µM) | 64 (≈ 111 µM) | 64 (≈ 111 µM) | 16 (≈ 27.7 µM) | 
6 | CC1=C\[C@@H](O)CC(=O)Cc2nc(co2)C(=O)N[C@H](Cc2c[nH]c3ccccc23)C(=O)O[C@H](C(C)C)[C@H](C)/C=C/C(=O)NC\C=C\1 [SA0202089] | > 64 | > 64 | 32 (≈ 51.9 µM) | 16 (≈ 25.9 µM) | 8 (≈ 13 µM) | > 64 | > 64 | > 64 | > 64 | 32 (≈ 51.9 µM) | 32 (≈ 51.9 µM) | > 64 | > 64 | > 64 | 32 (≈ 51.9 µM) | 32 (≈ 51.9 µM) | 32 (≈ 51.9 µM) | 32 (≈ 51.9 µM) | 64 (≈ 104 µM) | 32 (≈ 51.9 µM) | 
7 | CC1=C\[C@@H](O)CC(=O)Cc2nc(co2)C(=O)N[C@H](CCCCN)C(=O)O[C@H](C(C)C)[C@H](C)/C=C/C(=O)NC\C=C\1 [SA0202094] | > 64 | > 64 | > 64 | > 64 | 32 (≈ 57.3 µM) | > 64 | > 64 | > 64 | > 64 | > 64 | > 64 | > 64 | > 64 | > 64 | > 64 | > 64 | > 64 | > 64 | > 64 | > 64 | MIC (Gram-Negative Organisms; [10]): > 64 µg/mL
